Laboratory results reported in patent US20240124504A1, “AROMATIC HETEROCYCLIC COMPOUND, AND PHARMACEUTICAL COMPOSITION AND APPLICATION THEREOF” (GT APEIRON THERAPEUTICS LIMITED, priority 2020, published 2024).

Key:
ovarian cancer A2780 = assay: Cell biological activity detection (CyQuant, 72 hours), A2780; format: cell-based, human; conditions: Homo sapiens, A2780, 72 h, A2780 cells, incubation for 72 hours
Summary of the method: (§1)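 IC50 derived from CyQuant Direct nuclear staining (488 nm excitation) after 72 h compound exposure at 37 °C, 5% CO2. Compounds tested in 9 concentrations from 10 μM, 1:4 steps, 0.2% DMSO, on A2780 or HCC70 cells plated overnight at 2000/well in RPMI 1640 + 10% FBS.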

[1] = target: T1, CDK12 (aa686-1082)/cyclinK complex (Homo sapiens, UniProt Q9NYV4); assay: In-vitro enzymatic inhibitory activity testing, CDK12 inhibition assay (Caliper EZ Reader II); format: biochemical; conditions: CDK12/cyclinK 50 nM, 180 min at 27° C.; read-out: CDK12 IC50
T1 construct: A CDK12 (aa686-1082)/cyclinK complex (50 nM)
T1 sequence (Q9NYV4 686-1082, species assumed): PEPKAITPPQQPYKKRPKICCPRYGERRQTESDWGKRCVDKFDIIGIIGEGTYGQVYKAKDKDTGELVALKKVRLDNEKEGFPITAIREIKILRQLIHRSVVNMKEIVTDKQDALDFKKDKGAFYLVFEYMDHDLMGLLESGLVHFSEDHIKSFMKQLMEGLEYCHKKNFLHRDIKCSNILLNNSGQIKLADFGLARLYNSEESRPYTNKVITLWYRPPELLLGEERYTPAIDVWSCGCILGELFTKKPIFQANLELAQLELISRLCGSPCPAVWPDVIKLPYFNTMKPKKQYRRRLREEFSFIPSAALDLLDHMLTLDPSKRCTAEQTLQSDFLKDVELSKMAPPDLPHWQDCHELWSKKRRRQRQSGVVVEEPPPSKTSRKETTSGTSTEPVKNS
T1 sequence (O75909 whole entry partner, species assumed, the tested form may be a part): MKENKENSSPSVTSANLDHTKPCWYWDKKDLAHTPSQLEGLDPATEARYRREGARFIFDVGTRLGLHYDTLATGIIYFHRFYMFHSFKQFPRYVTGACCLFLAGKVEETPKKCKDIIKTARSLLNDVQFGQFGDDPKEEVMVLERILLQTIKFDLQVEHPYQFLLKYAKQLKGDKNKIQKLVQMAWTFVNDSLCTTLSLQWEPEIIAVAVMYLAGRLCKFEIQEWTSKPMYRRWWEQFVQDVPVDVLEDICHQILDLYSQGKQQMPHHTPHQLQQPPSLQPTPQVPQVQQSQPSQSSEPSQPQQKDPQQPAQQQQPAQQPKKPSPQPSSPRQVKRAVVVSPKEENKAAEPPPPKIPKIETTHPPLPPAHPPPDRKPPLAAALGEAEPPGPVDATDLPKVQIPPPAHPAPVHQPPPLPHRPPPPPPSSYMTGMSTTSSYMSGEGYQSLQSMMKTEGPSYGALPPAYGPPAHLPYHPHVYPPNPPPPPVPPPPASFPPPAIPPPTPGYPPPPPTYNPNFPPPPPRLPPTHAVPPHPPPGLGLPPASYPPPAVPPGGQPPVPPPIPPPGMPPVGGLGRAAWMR
Summary of the method: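 CDK12 (aa686-1082)/cyclinK complex at 50 nM was pre-incubated with compound for 10 min, then reacted 180 min at 27° C with ATP and 2 μM 5-FAM-CDK9tide in pH 6.5 MES buffer with 10 mM MgCl2. Reactions were EDTA-quenched and product resolved electrophoretically; IC50 from nonlinear curve fit.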

[2] = target: CDK7/cyclinH/MAT1 complex (Homo sapiens, UniProt P50613); assay: In-vitro enzymatic inhibitory activity testing, CDK7 inhibition assay (Caliper EZ Reader II); format: biochemical; conditions: CDK7/cyclinH/MAT1 6 nM, 180 min at 27° C.
Sequence of CDK7/cyclinH/MAT1 complex (P50613 whole entry, species assumed): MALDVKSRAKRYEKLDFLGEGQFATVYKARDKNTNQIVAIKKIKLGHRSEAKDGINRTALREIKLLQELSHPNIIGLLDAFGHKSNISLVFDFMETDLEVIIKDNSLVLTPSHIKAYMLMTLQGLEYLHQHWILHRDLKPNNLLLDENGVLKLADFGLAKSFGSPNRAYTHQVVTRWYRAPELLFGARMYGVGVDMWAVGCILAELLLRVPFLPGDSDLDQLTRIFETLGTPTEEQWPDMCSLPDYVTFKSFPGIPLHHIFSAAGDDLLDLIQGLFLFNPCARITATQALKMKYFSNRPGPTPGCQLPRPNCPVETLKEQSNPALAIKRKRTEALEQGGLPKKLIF
Sequence of CDK7/cyclinH/MAT1 complex (P51946 whole entry partner, species assumed): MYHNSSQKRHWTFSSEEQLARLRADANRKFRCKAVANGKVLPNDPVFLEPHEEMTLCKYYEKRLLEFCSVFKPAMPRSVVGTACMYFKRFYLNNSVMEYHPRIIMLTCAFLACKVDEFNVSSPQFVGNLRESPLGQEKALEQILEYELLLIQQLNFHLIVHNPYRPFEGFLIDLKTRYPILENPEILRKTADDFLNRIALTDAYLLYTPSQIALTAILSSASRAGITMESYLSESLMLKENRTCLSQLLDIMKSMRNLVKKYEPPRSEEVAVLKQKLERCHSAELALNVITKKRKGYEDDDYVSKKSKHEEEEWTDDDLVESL
Sequence of CDK7/cyclinH/MAT1 complex (P51948 whole entry partner, species assumed): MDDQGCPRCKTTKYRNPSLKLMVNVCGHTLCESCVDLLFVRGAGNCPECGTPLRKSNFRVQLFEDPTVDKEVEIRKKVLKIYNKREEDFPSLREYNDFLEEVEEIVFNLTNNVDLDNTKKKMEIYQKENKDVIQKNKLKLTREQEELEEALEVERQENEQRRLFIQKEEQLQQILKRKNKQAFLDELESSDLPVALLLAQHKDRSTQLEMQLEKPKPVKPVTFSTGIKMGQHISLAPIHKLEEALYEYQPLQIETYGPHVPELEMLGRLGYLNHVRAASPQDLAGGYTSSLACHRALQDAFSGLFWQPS
Summary of the method: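 Enzyme preincubated 10 min with compound, then peptide substrate plus ATP added in 80 mM MES pH 6.5, 10 mM MgCl2 buffer; 180 min at 27 °C, stopped with EDTA.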

[3] = system: human breast cancer cells HCC70; assay: Cell biological activity detection (CyQuant, 72 hours), HCC70; format: cell-based; conditions: Homo sapiens, HCC70, 72 h, incubation for 72 hours
Summary of the method: as §1

CDK9/cyclinT1 complex = CDK9/cyclinT1 complex (Homo sapiens, UniProt P50750); assay: In-vitro enzymatic inhibitory activity testing, CDK9 inhibition assay (Caliper EZ Reader II); format: biochemical; conditions: CDK9/cyclinT1 8 nM, 180 min at 27° C.
Sequence of CDK9/cyclinT1 complex (P50750 whole entry, species assumed): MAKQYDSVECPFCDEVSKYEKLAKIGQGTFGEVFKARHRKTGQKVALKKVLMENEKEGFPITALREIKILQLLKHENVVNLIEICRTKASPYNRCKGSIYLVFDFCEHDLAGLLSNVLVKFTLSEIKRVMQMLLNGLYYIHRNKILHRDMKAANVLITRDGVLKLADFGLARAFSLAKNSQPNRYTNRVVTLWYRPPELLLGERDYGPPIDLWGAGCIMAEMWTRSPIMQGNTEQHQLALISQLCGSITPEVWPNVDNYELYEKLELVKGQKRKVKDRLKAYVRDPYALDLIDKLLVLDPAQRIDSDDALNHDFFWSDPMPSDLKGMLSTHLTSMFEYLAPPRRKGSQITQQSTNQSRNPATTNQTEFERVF
Sequence of CDK9/cyclinT1 complex (O60563 whole entry partner, species assumed): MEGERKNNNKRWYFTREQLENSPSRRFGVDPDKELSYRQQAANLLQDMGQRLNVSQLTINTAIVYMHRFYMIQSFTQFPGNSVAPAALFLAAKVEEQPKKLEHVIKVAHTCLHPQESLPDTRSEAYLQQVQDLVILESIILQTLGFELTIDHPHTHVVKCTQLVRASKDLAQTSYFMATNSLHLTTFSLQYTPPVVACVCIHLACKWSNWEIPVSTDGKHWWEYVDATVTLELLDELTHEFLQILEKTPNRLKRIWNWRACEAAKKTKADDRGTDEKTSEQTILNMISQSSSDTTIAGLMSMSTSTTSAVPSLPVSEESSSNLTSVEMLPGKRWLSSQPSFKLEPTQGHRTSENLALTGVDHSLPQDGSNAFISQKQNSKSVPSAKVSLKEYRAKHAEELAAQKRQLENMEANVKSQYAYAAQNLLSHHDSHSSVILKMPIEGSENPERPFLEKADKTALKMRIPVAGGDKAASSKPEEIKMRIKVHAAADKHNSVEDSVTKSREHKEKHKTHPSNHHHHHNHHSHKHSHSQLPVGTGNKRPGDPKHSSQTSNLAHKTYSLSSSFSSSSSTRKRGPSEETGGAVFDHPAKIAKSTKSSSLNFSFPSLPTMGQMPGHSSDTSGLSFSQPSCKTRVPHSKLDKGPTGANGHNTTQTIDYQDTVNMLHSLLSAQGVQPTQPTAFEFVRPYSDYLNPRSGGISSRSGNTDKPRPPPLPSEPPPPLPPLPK
Summary of the method: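 Phosphorylated and unphosphorylated fluorescent peptide were resolved by mobility-shift electrophoresis, with IC50 taken from a nonlinear regression of dose-response data. Reactions ran 180 min at 27 °C in MES buffer pH 6.5 with MgCl2, after 10 min enzyme–compound preincubation, using 8 nM CDK9/cyclinT1 and 5-FAM-CDK9tide.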

CDK2/cyclinE1 complex = CDK2/cyclinE1 complex (Homo sapiens, UniProt P24941); assay: In-vitro enzymatic inhibitory activity testing, CDK2 inhibition assay (Caliper EZ Reader II); format: biochemical; conditions: CDK2/cyclinE1 0.5 nM, 180 min at 27° C.
Summary of the method: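 CDK2/cyclinE1 (0.5 nM) phosphorylated 5-FAM-CDK7tide (2 μM) in MES buffer pH 6.5 with MgCl2, Tween 20 and BSA. Substrate and product were separated electrophoretically on a Caliper EZ Reader II. IC50 values came from nonlinear dose-response fits.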

| Structure (SMILES) | IC50 (ovarian cancer A2780) | IC50 [1] | IC50 [2] | IC50 [3] | IC50 (CDK9/cyclinT1 complex) | IC50 (CDK2/cyclinE1 complex) |
| --- | --- | --- | --- | --- | --- | --- |
| CP(C)(=O)c1cccc2c(-c3nc(N[C@H]4CC[C@H](N)C4)ncc3C(F)(F)F)c[nH]c12 [Compound 81] | < 0.02 µM | 0.2 to 5 µM | < 0.02 µM | < 0.02 µM | 0.2 to 5 µM | 0.2 to 5 µM |
| CP(C)(=O)c1cccc2c(-c3nc(Nc4cn[nH]c4)ncc3C(F)(F)F)c[nH]c12 [Compound 84, (3-(2-((1H-pyrazol-4-yl)amino)-5-(trifluoromethyl)pyrimidin-4-yl)-1H-indole-7-yl)dimethylphosphine oxide] | < 0.02 µM | 0.2 to 5 µM | < 0.02 µM | < 0.02 µM | 5 to 50 µM | 0.02 to 0.2 µM |
| CP(C)(=O)c1cccc2c(-c3nc(NCC4(O)CCC4)ncc3C(F)(F)F)c[nH]c12 [Compound 90] | 0.02 to 0.2 µM | > 50 µM | 0.02 to 0.2 µM | 0.02 to 0.2 µM | 5 to 50 µM | 5 to 50 µM |
| CC(C)(O)CNc1ncc(C(F)(F)F)c(-c2c[nH]c3c(P(C)(C)=O)cccc23)n1 [Compound 95, (3-(2-((2-hydroxy-2-methylpropyl)amino)-5-(trifluoromethyl)pyrimidin-4-yl)-1H-indole-7-yl)dimethylphosphine oxide] | 0.02 to 0.2 µM | > 50 µM | < 0.02 µM | 0.02 to 0.2 µM | > 50 µM | 5 to 50 µM |
| CP(C)(=O)c1cccc2c(-c3nc(N[C@@H]4CC[C@@]5(CCNC5)C4)ncc3C(F)(F)F)c[nH]c12 [Compound 99, (3-(2-(((5R,7R)-2-azaspiro[4.4]non-7-yl)amino)-5-(trifluoromethyl)pyrimidin-4-yl)-1H-indole-7-yl)dimethylphosphine oxide] | < 0.02 µM | 0.2 to 5 µM | < 0.02 µM | < 0.02 µM | 5 to 50 µM | 0.2 to 5 µM |
| FC(F)(F)c1cnc(N[C@H]2CCCNC2)nc1-c1c[nH]c2cc(N3CCCC3)ccc12 [Compound 101, (S)—N-(piperidin-3-yl)-4-(6-(pyrrolidin-1-yl)-1H-indole-3-yl)-5-(trifluoromethyl)pyrimidin-2-amine, reference compound] | 0.02 to 0.2 µM | 0.2 to 5 µM | 0.02 to 0.2 µM | 0.2 to 5 µM | 0.2 to 5 µM | 5 to 50 µM |
| CC(C)[C@@H](CO)Nc1ncc(C(F)(F)F)c(-c2c[nH]c3c(P(C)(C)=O)cccc23)n1 [Compound 115, (S)-(3-(2-((1-hydroxy-3-methylbutan-2-yl)amino)-5-(trifluoromethyl)pyrimidin-4-yl)-1H-indole-7-yl)dimethylphosphine oxide] | 0.02 to 0.2 µM | > 50 µM | 0.02 to 0.2 µM | 0.02 to 0.2 µM | > 50 µM | 5 to 50 µM |
| CP(C)(=O)c1cccc2c(-c3nc(NC4(CO)CCCC4)ncc3C(F)(F)F)c[nH]c12 [Compound 116, (3-(2-((1-(hydroxymethyl)cyclopentyl)amino)-5-(trifluoromethyl)pyrimidin-4-yl)-1H-indole-7-yl)dimethylphosphine oxide] | 0.02 to 0.2 µM | > 50 µM | 0.02 to 0.2 µM | 0.02 to 0.2 µM | > 50 µM | 5 to 50 µM |
| CP(C)(=O)c1cccc2c(-c3nc(NC4(CO)CCOC4)ncc3C(F)(F)F)c[nH]c12 (stereo not drawn) [Compound 117, (3-(2-((3-(hydroxymethyl)tetrahydrofuran-3-yl)amino)-5-(trifluoromethyl)pyrimidin-4-yl)-1H-indole-7-yl)dimethylphosphine oxide] | < 0.02 µM | > 50 µM | < 0.02 µM | < 0.02 µM | > 50 µM | 5 to 50 µM |
| CP(C)(=O)c1cccc2c(-c3nc(NC[C@H]4C[C@H]4CO)ncc3C(F)(F)F)c[nH]c12 [Compound 141, (3-(2-((((1S,2R)-2-(hydroxymethyl)cyclopropyl)methyl)amino)-5-(trifluoromethyl)pyrimidin-4-yl)-1H-indole-7-yl)dimethylphosphine oxide] | 0.02 to 0.2 µM | > 50 µM | < 0.02 µM | 0.02 to 0.2 µM | > 50 µM | 0.2 to 5 µM |
